Assay results from paper PMC7058083, “Structural basis of ligand binding modes at the human formyl peptide receptor 2” (Nature Communications, 2020).

Experiments:
Assay in all cases: Saturation binding of WK(FITC)YMVm, flow cytometry on HEK293F cells
[1] = molecular target: T1, wild-type (WT) and mutant FPR2 (Homo sapiens, UniProt P25090, L198F); details: FPR2 L198F
T1 construct: expressed in transfected cells; host or cells: HEK293F

[2] = molecular target: T2, wild-type (WT) and mutant FPR2 (Homo sapiens, UniProt P25090, L198A); details: FPR2 L198A
T2 construct: expressed in transfected cells; host or cells: HEK293F
T2 sequence (P25090 whole entry L198A): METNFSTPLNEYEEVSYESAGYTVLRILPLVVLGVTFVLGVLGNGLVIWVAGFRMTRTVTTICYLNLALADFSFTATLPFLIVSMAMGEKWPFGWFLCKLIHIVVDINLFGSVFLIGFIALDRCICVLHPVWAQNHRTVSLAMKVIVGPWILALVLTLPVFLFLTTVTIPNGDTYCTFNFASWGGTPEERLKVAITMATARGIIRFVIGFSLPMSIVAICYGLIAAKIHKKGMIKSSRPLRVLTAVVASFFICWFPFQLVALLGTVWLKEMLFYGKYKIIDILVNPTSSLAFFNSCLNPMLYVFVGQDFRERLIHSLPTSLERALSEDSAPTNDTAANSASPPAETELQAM

[3] = molecular target: T3, wild-type (WT) and mutant FPR2 (Homo sapiens, UniProt P25090, V160A); details: FPR2 V160A
T3 construct: expressed in transfected cells; host or cells: HEK293F
T3 sequence (P25090 1-351 V160A): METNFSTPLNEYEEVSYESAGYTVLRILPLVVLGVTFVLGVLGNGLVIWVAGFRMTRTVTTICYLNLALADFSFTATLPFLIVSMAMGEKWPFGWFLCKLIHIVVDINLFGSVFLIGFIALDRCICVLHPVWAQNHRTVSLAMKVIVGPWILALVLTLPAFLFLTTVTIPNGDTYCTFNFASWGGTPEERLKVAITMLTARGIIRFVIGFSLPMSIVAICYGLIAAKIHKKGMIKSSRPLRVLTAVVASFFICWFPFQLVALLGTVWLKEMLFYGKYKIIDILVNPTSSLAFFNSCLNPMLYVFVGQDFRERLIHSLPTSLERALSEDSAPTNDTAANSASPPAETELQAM

T1 sequence (P25090 whole entry L198F): as the sequence (P25090 whole entry L198A) above, with A198F counted along it

Span (% of WT), saturation binding [1]: 60 ± 9 % of WT
Kd ([1]; mean ± s.e.m., n=3, SEM): 21.4 ± 5.3 nM
Span (% of WT), saturation binding [2]: 84 ± 14 % of WT
Kd ([2]; mean ± s.e.m., n=3, SEM): 41.5 ± 10.0 nM
Span (% of WT), saturation binding [3]: 30 ± 4 % of WT
Kd ([3]; mean ± s.e.m., n=4, SEM): 36.1 ± 18.1 nM
SMILES: CSCC[C@H](NC(=O)[C@H](Cc1ccc(O)cc1)NC(=O)[C@H](CCCCNC(=S)Nc1ccc2c(c1)C(=O)OC21c2ccc(O)cc2Oc2cc(O)ccc21)NC(=O)[C@@H](N)Cc1c[nH]c2ccccc12)C(=O)N[C@H](C(=O)N[C@H](CCSC)C(N)=O)C(C)C [WK(FITC)YMVm]
